These results are taken from ChEMBL document CHEMBL4811262, “Parallel discovery of selective and dual inhibitors of tryptophan dioxygenases IDO1 and TDO2 with a newly-modified enzymatic assay” (Bioorg Med Chem, 2021).

The target of experiment [1] is T1, Tryptophan 2,3-dioxygenase (Homo sapiens, UniProt P48775). The experiment is described as follows: Inhibition of recombinant human TDO2 expressed in Escherichia coli BL21 (DE3) assessed as reduction in N-formylkynurenine formation using L-tryptophan as substrate incubated for 30 mins by methylene blue reagent based concurrent assay.
T1 sequence (P48775 whole entry): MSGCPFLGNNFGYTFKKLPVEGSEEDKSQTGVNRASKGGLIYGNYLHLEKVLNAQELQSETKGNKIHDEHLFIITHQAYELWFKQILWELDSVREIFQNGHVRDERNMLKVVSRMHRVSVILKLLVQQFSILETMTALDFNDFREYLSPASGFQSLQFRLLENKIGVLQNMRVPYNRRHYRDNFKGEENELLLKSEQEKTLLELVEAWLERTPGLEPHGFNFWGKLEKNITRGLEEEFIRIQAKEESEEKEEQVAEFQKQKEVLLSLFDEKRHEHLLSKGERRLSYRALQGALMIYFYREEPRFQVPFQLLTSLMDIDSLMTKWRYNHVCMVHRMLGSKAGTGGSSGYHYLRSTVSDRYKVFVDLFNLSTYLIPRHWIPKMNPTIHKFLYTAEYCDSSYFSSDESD
The target of experiment [2] is T2, Indoleamine 2,3-dioxygenase 1 (Homo sapiens, UniProt P14902). As to the kind of experiment: Inhibition of recombinant human IDO1 expressed in Escherichia coli EC538 assessed as reduction in N-formylkynurenine formation using L-tryptophan as substrate incubated for 30 mins by methylene blue reagent based concurrent assay.
T2 sequence (P14902 whole entry): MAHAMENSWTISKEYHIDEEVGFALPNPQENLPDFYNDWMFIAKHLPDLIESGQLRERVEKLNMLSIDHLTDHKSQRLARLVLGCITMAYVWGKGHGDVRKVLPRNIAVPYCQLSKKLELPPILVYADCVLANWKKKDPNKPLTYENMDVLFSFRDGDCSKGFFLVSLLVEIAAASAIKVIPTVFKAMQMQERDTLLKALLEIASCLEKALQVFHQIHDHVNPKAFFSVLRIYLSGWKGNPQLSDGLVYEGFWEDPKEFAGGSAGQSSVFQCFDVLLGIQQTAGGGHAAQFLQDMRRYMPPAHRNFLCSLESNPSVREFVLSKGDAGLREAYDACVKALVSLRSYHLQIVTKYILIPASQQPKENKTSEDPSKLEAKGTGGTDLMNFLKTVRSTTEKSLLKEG
The target in experiment [3] is Tryptophan 2,3-dioxygenase (Rattus norvegicus, UniProt P21643). The experiment is described as follows: Inhibition of TDO2 in rat liver homogenate assessed as reduction in N-formylkynurenine formation using L-tryptophan as substrate incubated for 1 hr. Type of experiment: tissue-based.
Chain of Tryptophan 2,3-dioxygenase (Rattus norvegicus, UniProt P21643) (P21643 whole entry): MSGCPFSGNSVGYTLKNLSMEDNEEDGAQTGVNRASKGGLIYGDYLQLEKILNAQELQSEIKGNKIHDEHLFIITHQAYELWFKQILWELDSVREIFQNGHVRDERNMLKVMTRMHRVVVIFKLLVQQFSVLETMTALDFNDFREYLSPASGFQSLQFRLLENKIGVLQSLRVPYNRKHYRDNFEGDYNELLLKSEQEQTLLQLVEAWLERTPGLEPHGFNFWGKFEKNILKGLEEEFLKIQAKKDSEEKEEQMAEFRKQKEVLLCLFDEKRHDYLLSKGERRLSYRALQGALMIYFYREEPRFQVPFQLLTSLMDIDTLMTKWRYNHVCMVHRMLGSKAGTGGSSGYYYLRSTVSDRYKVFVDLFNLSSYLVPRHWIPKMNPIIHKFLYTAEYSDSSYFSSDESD
Experiment [4] has as its target T2, Indoleamine 2,3-dioxygenase 1. The experiment is described as follows: Inhibition of recombinant human IDO1 expressed in Escherichia coli EC538 assessed as reduction in N-formylkynurenine formation using L-tryptophan as substrate incubated for 30 mins by methylene blue reagent based assay.
Experiment [5] concerns the target T1, Tryptophan 2,3-dioxygenase. The experiment is described as follows: Inhibition of recombinant human TDO2 expressed in Escherichia coli BL21 (DE3) assessed as reduction in N-formylkynurenine formation using L-tryptophan as substrate incubated for 30 mins by methylene blue reagent based assay.

For `Oc1ccccc1-c1nc2c3ccccc3c3ccccc3c2[nH]1`, the IC50 in experiment [1] was 12.3 µM; in experiment [2] it was 11.8 µM.

Consider `O=[N+]([O-])c1cc(F)c2cccnc2c1O`, for which the IC50 in experiment [1] turned out to be 30.2 µM; in experiment [2], 14.6 µM.

With `O=Cc1ccc(O)c2ncccc12`, the IC50 in experiment [1] was above 100 µM; in experiment [2], 4.37 µM.

Regarding `CC1Oc2cc3c(-c4c(O)cc(O)c5c(O)c6c(cc45)OC(C)C(C)C6=O)c(O)cc(O)c3c(O)c2C(=O)C1C` (centres undefined), the IC50 turned out to be 48.6 µM in experiment [1] and 44.1 µM in experiment [2].

Regarding `COCCn1c2nc(=O)n(-c3ccccc3)c(=O)c-2nc2ccccc21`, the IC50 in experiment [1] was 33.7 µM; in experiment [2], 23.8 µM.

For `O=[N+]([O-])/C=C/c1cc2ccccc2[nH]1`, the IC50 in experiment [1] is above 100 µM; in experiment [2], 2.79 µM.

For `Cc1cc(=O)n2c3c(c4c(cc13)c(CN(C)C)cc(=O)n4C)OC2`, the figures for the IC50 in experiment [1] and in experiment [2] were 17.6 µM and 27 µM, respectively.

On to `O=[N+]([O-])c1cc([N+](=O)[O-])c2cccnc2c1O`, for which the IC50 is 22.7 µM in experiment [1] and 11.1 µM in experiment [2].

`O=S(=O)(/N=C/c1c(O)ccc2ccccc12)c1cccs1`: the IC50 in experiment [1] is 11.3 µM; in experiment [2], 1.39 µM.

In the case of `Fc1ccc2c(/C=C/c3cccnc3)c[nH]c2c1`, the IC50 turned out to be 0.05 µM in experiment [3], 478 µM in experiment [2] and 350 µM in experiment [4].

As for `O=C1c2ccccc2C2=C3C(O)=NN=C3CCN12`, the IC50 came to 4.35 µM in experiment [1] and 1.72 µM in experiment [2].

As for `Nc1nonc1C(=NO)Nc1ccc(F)c(Cl)c1`, the IC50 in experiment [1] was 3.62 µM; in experiment [5], 3.47 µM.

With `CC1=C(O)C(=O)C=C2C1=CC=C1[C@@]2(C)CC[C@@]2(C)[C@@H]3C[C@](C)(C(=O)O)CC[C@]3(C)CC[C@]12C` [CELASTROL], the IC50 in experiment [1] is above 100 µM; in experiment [2], 8.41 µM.

As to `NS(=O)(=O)NCCNc1nonc1C(=NO)Nc1ccc(F)c(Br)c1` [EPACADOSTAT], the IC50 was found to be 3.43 µM in experiment [1] and 2.12 µM in experiment [5].
